Measurements taken from patent EP3915546A1, “USE OF ACID AS SOLVENT FOR PRECIPITATIONS” (leon-nanodrugs GmbH, priority 2020, dated 2021).
Each block holds one molecule with its values, some of them ahead of it.

What was measured:
Assay type in all cases: physicochemical
[1] = Microscopy of the suspension after precipitation in a MikroJetReaktor (particle growth)
Experimental: • Figur 1: Mikroskopische Aufnahme von ENZ, entstanden durch Mischen von 1 Teil einer Lösung von 100 mg/ml ENZ in Aceton mit 1 Teil Wasser. Maßstab: Der Balken im Bild entspricht 20 µm. (a) Aufnahme unmittelbar nach Fällung. (b) Aufnahme ca. 12 Stunden nach der Fällung. • Figur 2: Mikroskopische Aufnahme von ENZ-Partikeln. Entstanden durch Mischen von 1 Teil einer Lösung von 100 mg/ml ENZ in Eisessig mit 10 Teilen Wasser. Maßstab: Der Balken im Bild entspricht 20 µm. (a) Aufnahme ca. 1 Stunde nach Fällung. (b) Aufnahme ca. 18 Stunden nach der Fällung.
100 mg Enzalutamide werden unter Rühren in 1 ml Aceton bei Raumtemperatur gelöst (100 mg/ml). Diese Lösung wird in einem MikroJetReaktor mit Wasser gemischt in einem Mischungsverhältnis von 1 Teil Enzalutamide in Aceton zu 1,01 Teilen Wasser. Die erhaltene Suspension wird mikroskopiert (Figur. 1).
100 mg Enzalutamide werden unter Rühren in 1 ml Eisessig bei Raumtemperatur gelöst (100 mg/ml). Diese Lösung wird in einem MikroJetReaktor mit Wasser gemischt in einem Mischungsverhältnis von 1 Teil Enzalutamide in Eisessig zu 10 Teilen Wasser. Die erhaltene Suspension wird mikroskopiert (Figur 3).

[2] = Precipitation with water: total concentration in suspension and share dissolved in the mother liquor
Experimental: Für die pharmazeutische Weiterverarbeitung der Suspension zu einem Arzneimittel ist es wünschenswert, eine Wirkstoffkonzentration von mehr als 50 mg/ml zu erzeugen. Tabelle 4: Erzeugung von ENZ Partikeln durch Fällung. Gesamtkonzentration an ENZ in der Suspension (mg/ml) und der Anteil (%) des in der Mutterlauge gelösten ENZ
Wird eine Lösung von 100 mg/ml Enzalutamide in Aceton mit gleichem Teil an Wasser gemischt, so fällt ein Großteil des Enzalutamides aus, da dessen Sättigungskonzentration überschritten wird. Die resultierende Mischung enthält 50% Aceton und eine Gesamtmenge von 50 mg/ml Enzalutamide. Davon werden 7,87 mg/ml in der Mutterlauge gelöst vorliegen (Tabelle 3, Nr. 2, Aceton); dies entspricht 15,7 % der Gesamtmenge von 50 mg/ml (Tabelle 4, Nr. 2, Aceton). Diese gelöste Menge an Enzalutamide (15,7 % der Gesamtmenge) ist zu hoch und führt zu einem unerwünschten und schnellen Wachstum der Partikel.

[3] = Thermodynamic saturation solubility in solvents and their mixtures with water (24 h stirring at room temperature, HPLC)
Experimental: Zur Bestimmung der thermodynamischen Sättigungslöslichkeit einer Substanz in einem bestimmten Lösungsmittel wird zunächst zur Orientierung eine Literaturrecherche durchgeführt, um einen ersten groben Richtwert zu erhalten. Danach wurden 500 mg (und gegebenenfalls mehr) des Wirkstoffpulvers eingewogen und in 5 ml des Lösungsmittels unter leichtem Rühren suspendiert. Falls das Pulver vollständig in Lösung ging, wurde zusätzlich 100 mg (oder iterative nochmalige Zugabe der initial eingewogenen Menge) Feststoff zugesetzt. Dies wurde wiederholt, bis sich ein Bodensatz bildete.
Die feststoff-enthaltende Mischung wurde verschlossen und 24 Stunden bei Raumtemperatur gerührt. Nach 24 Stunden wurde der Überstand von Bodensatz getrennt, zentrifugiert (Filtration ist nahezu unmöglich) und zur Quantifizierung mit der mobilen Phase der HPLC-Methode verdünnt.
Ein weiterer Teil des zentrifugierten Überstandes wurde unter Rühren mit demineralisiertem Wasser im Volumenverhältnis von 1:1 gemischt. Dazu wurde Wasser vorgelegt und die Wirkstofflösung unter Rühren oder Schütteln zu pipettiert. Dabei fiel Wirkstoff aus. Der Überstand wurde nach 3 Stunden von Bodensatz getrennt, zentrifugiert und zur Quantifizierung mittels HPLC verdünnt. Der Verdünnungsschritt wird grob abgeschätzt, Zielkonzentration sind z. B. 100 µg/mL je nach Wirkstoff, um im Linearitätsbereich des Detektors zu bleiben. Liegt die Konzentration zu hoch oder zu niedrig wird der Verdünnungsschritt angepasst. Die Verdünnung erfolgte mit einem zu mobilen Phase kompatiblen Lösungsmittelgemisch (z. B. Methanol vorlegen, Probe zugeben, Wasser zugeben). Falls die Substanz in diesem Lösungsmittelgemisch in dieser Verdünnung nicht löslich war, wurde die Verdünnung mit reinem organischem Lösungsmittel wiederholt.
Dieses Vorgehen wurde für die Mischungsverhältnisse von 1:2, 1:3 und 1:10 wiederholt.

[4] = Aceton, Lösungsmittel-Gehalt der Mischung 100 %
[5] = Aceton/Wasser, Lösungsmittel-Gehalt der Mischung 25 %
[6] = Aceton/Wasser, Lösungsmittel-Gehalt der Mischung 33,3 %
[7] = Aceton/Wasser, Lösungsmittel-Gehalt der Mischung 50 %
[8] = Eisessig, Lösungsmittel-Gehalt der Mischung 100 %
[9] = Eisessig/Wasser, Lösungsmittel-Gehalt der Mischung 9,09 %
[10] = Eisessig/Wasser, Lösungsmittel-Gehalt der Mischung 25 %
[11] = Eisessig/Wasser, Lösungsmittel-Gehalt der Mischung 33,3 %
[12] = Eisessig/Wasser, Lösungsmittel-Gehalt der Mischung 50 %
[13] = THF, Lösungsmittel-Gehalt der Mischung 100 %
[14] = THF/Wasser, Lösungsmittel-Gehalt der Mischung 25 %
[15] = THF/Wasser, Lösungsmittel-Gehalt der Mischung 33,3 %
[16] = THF/Wasser, Lösungsmittel-Gehalt der Mischung 50 %
[17] = Aceton/Wasser, Lösungsmittel-Gehalt der Mischung 9,09 %
[18] = Ameisensäure/Wasser, Lösungsmittel-Gehalt der Mischung 9,09 %
[19] = Ethanol, Lösungsmittel-Gehalt der Mischung 100 %
[20] = Ethanol/Wasser, Lösungsmittel-Gehalt der Mischung 9,09 %
[21] = Ethanol/Wasser, Lösungsmittel-Gehalt der Mischung 25 %
[22] = Ethanol/Wasser, Lösungsmittel-Gehalt der Mischung 33,3 %
[23] = Ethanol/Wasser, Lösungsmittel-Gehalt der Mischung 50 %
[24] = THF/Wasser, Lösungsmittel-Gehalt der Mischung 9,09 %

ENZ in Lösung bei Fällung aus (% der Gesamtmenge in Suspension) ([2]; Aceton, Lösungsmittel-Gehalt der Suspension 100 %, ENZ in Suspension 100 mg/ml): 100%
ENZ in Lösung bei Fällung aus (% der Gesamtmenge in Suspension) ([2]; Eisessig, Lösungsmittel-Gehalt der Suspension 100 %, ENZ in Suspension 100 mg/ml): 100%
ENZ in Lösung bei Fällung aus (% der Gesamtmenge in Suspension) ([2]; Fällung aus Aceton with Wasser, Lösungsmittel-Gehalt der Suspension 25 %, ENZ in Suspension 25 mg/ml): 0,93%
ENZ in Lösung bei Fällung aus (% der Gesamtmenge in Suspension) ([2]; Fällung aus Aceton with Wasser, Lösungsmittel-Gehalt der Suspension 33,3 %, ENZ in Suspension 33,3 mg/ml): 1,61%
ENZ in Lösung bei Fällung aus (% der Gesamtmenge in Suspension) ([2]; Fällung aus Aceton with Wasser, Lösungsmittel-Gehalt der Suspension 50 %, ENZ in Suspension 50 mg/ml): 15,7%
ENZ in Lösung bei Fällung aus (% der Gesamtmenge in Suspension) ([2]; Fällung aus Eisessig with Wasser, Lösungsmittel-Gehalt der Suspension 9,09 %, ENZ in Suspension 9,1 mg/ml): 0,95%
ENZ in Lösung bei Fällung aus (% der Gesamtmenge in Suspension) ([2]; Fällung aus Eisessig with Wasser, Lösungsmittel-Gehalt der Suspension 25 %, ENZ in Suspension 25 mg/ml): 0,45%
ENZ in Lösung bei Fällung aus (% der Gesamtmenge in Suspension) ([2]; Fällung aus Eisessig with Wasser, Lösungsmittel-Gehalt der Suspension 33,3 %, ENZ in Suspension 33,3 mg/ml): 0,88%
ENZ in Lösung bei Fällung aus (% der Gesamtmenge in Suspension) ([2]; Fällung aus Eisessig with Wasser, Lösungsmittel-Gehalt der Suspension 50 %, ENZ in Suspension 50 mg/ml): 4,09%
ENZ in Lösung bei Fällung aus (% der Gesamtmenge in Suspension) ([2]; Fällung aus THF with Wasser, Lösungsmittel-Gehalt der Suspension 25 %, ENZ in Suspension 25 mg/ml): 1,46%
ENZ in Lösung bei Fällung aus (% der Gesamtmenge in Suspension) ([2]; Fällung aus THF with Wasser, Lösungsmittel-Gehalt der Suspension 33,3 %, ENZ in Suspension 33,3 mg/ml): 8,04%
ENZ in Lösung bei Fällung aus (% der Gesamtmenge in Suspension) ([2]; Fällung aus THF with Wasser, Lösungsmittel-Gehalt der Suspension 50 %, ENZ in Suspension 50 mg/ml): 33,8%
ENZ in Lösung bei Fällung aus (% der Gesamtmenge in Suspension) ([2]; THF, Lösungsmittel-Gehalt der Suspension 100 %, ENZ in Suspension 100 mg/ml): 100%
Sättigungslöslichkeit von ENZ [3, 4]: 358 mg/mL
Sättigungslöslichkeit von ENZ [3, 5]: 0,233 mg/ml
Sättigungslöslichkeit von ENZ [3, 6]: 0,537 mg/ml
Sättigungslöslichkeit von ENZ [3, 7]: 7,87 mg/ml
Sättigungslöslichkeit von ENZ [3, 8]: 155,4 mg/ml
Sättigungslöslichkeit von ENZ [3, 9]: 0,086 mg/ml
Sättigungslöslichkeit von ENZ [3, 10]: 0,112 mg/ml
Sättigungslöslichkeit von ENZ [3, 11]: 0,294 mg/ml
Sättigungslöslichkeit von ENZ [3, 12]: 2,044 mg/ml
Sättigungslöslichkeit von ENZ ([3]; Eisessig/Wasser, Lösungsmittel-Gehalt der Mischung 50 %, listed as Enzalutamide): 2,04 mg/ml
Sättigungslöslichkeit von ENZ [3, 13]: 364 mg/mL
Sättigungslöslichkeit von ENZ [3, 14]: 0,365 mg/ml
Sättigungslöslichkeit von ENZ [3, 15]: 2,68 mg/ml
Sättigungslöslichkeit von ENZ [3, 16]: 16,9 mg/ml
SMILES: CNC(=O)c1ccc(N2C(=S)N(c3ccc(C#N)c(C(F)(F)F)c3)C(=O)C2(C)C)cc1F [ENZ, Enzalutamid]
Particles seen by microscopy after precipitation ([1]; 100 mg/ml in Aceton mixed with 1,01 Teilen Wasser in a MikroJetReaktor): Mikropartikel, die innerhalb von 12 Stunden zu großen Nadeln wachsen
Particles seen by microscopy after precipitation ([1]; 100 mg/ml in Eisessig mixed with 10 Teilen Wasser in a MikroJetReaktor): im Vergleich zu Aceton deutlich kleinere Partikel, die in Laufe von 18 Stunden zu Nadeln wachsen

SMILES: CCC(C)n1ncn(-c2ccc(N3CCN(c4ccc(OCC5COC(Cn6cncn6)(c6ccc(Cl)cc6Cl)O5)cc4)CC3)cc2)c1=O (centres unmarked) [ITZ, Itraconazol]
Sättigungslöslichkeit von ITZ [3, 4]: 2,500 mg/ml
Sättigungslöslichkeit von ITZ relativ zu der Sättigungslöslichkeit im Lösungsmittel [3, 4]: 100%
Sättigungslöslichkeit von ITZ [3, 17]: 0,0001 mg/ml
Sättigungslöslichkeit von ITZ relativ zu der Sättigungslöslichkeit im Lösungsmittel [3, 17]: 0,004%
Sättigungslöslichkeit von ITZ [3, 5]: 0,002 mg/ml
Sättigungslöslichkeit von ITZ relativ zu der Sättigungslöslichkeit im Lösungsmittel [3, 5]: 0,09%
Sättigungslöslichkeit von ITZ [3, 6]: 0,008 mg/ml
Sättigungslöslichkeit von ITZ relativ zu der Sättigungslöslichkeit im Lösungsmittel [3, 6]: 0,34%
Sättigungslöslichkeit von ITZ [3, 7]: 0,038 mg/ml
Sättigungslöslichkeit von ITZ relativ zu der Sättigungslöslichkeit im Lösungsmittel [3, 7]: 1,53%
Sättigungslöslichkeit von ITZ ([3]; Ameisensäure, Lösungsmittel-Gehalt der Mischung 100 %): 435 mg/mL
Sättigungslöslichkeit von ITZ [3, 18]: 0,01 mg/ml
Sättigungslöslichkeit von ITZ relativ zu der Sättigungslöslichkeit im Lösungsmittel [3, 18]: 0,002%
Sättigungslöslichkeit von ITZ [3, 8]: 157,8 mg/ml
Sättigungslöslichkeit von ITZ relativ zu der Sättigungslöslichkeit im Lösungsmittel [3, 8]: 100%
Sättigungslöslichkeit von ITZ [3, 9]: 0,028 mg/ml
Sättigungslöslichkeit von ITZ relativ zu der Sättigungslöslichkeit im Lösungsmittel [3, 9]: 0,02%
Sättigungslöslichkeit von ITZ [3, 10]: 0,009 mg/ml
Sättigungslöslichkeit von ITZ relativ zu der Sättigungslöslichkeit im Lösungsmittel [3, 10]: 0,01%
Sättigungslöslichkeit von ITZ [3, 11]: 0,210 mg/ml
Sättigungslöslichkeit von ITZ relativ zu der Sättigungslöslichkeit im Lösungsmittel [3, 11]: 0,13%
Sättigungslöslichkeit von ITZ [3, 12]: 1,455 mg/ml
Sättigungslöslichkeit von ITZ relativ zu der Sättigungslöslichkeit im Lösungsmittel [3, 12]: 0,92%
Sättigungslöslichkeit von ITZ [3, 19]: 0,289 mg/ml
Sättigungslöslichkeit von ITZ relativ zu der Sättigungslöslichkeit im Lösungsmittel [3, 19]: 100%
Sättigungslöslichkeit von ITZ [3, 20]: 0,009 mg/ml
Sättigungslöslichkeit von ITZ relativ zu der Sättigungslöslichkeit im Lösungsmittel [3, 20]: 2,95%
Sättigungslöslichkeit von ITZ [3, 21]: 0,006 mg/ml
Sättigungslöslichkeit von ITZ relativ zu der Sättigungslöslichkeit im Lösungsmittel [3, 21]: 2,08%
Sättigungslöslichkeit von ITZ [3, 22]: 0,002 mg/ml
Sättigungslöslichkeit von ITZ relativ zu der Sättigungslöslichkeit im Lösungsmittel [3, 22]: 0,69%
Sättigungslöslichkeit von ITZ [3, 23]: 0,102 mg/ml
Sättigungslöslichkeit von ITZ relativ zu der Sättigungslöslichkeit im Lösungsmittel [3, 23]: 34,36%
Sättigungslöslichkeit von ITZ [3, 13]: 4,255 mg/ml
Sättigungslöslichkeit von ITZ relativ zu der Sättigungslöslichkeit im Lösungsmittel [3, 13]: 100%
Sättigungslöslichkeit von ITZ [3, 24]: 0,001 mg/ml
Sättigungslöslichkeit von ITZ relativ zu der Sättigungslöslichkeit im Lösungsmittel [3, 24]: 0,02%
Sättigungslöslichkeit von ITZ [3, 14]: 0,002 mg/ml
Sättigungslöslichkeit von ITZ relativ zu der Sättigungslöslichkeit im Lösungsmittel [3, 14]: 0,05%
Sättigungslöslichkeit von ITZ [3, 15]: 0,013 mg/ml
Sättigungslöslichkeit von ITZ relativ zu der Sättigungslöslichkeit im Lösungsmittel [3, 15]: 0,29%
Sättigungslöslichkeit von ITZ [3, 16]: 0,677 mg/ml
Sättigungslöslichkeit von ITZ relativ zu der Sättigungslöslichkeit im Lösungsmittel [3, 16]: 15,91%
Sättigungslöslichkeit von ITZ ([3]; in Tetrahydrofuran, Aceton und Ethanol): < 5 mg/mL
Sättigungslöslichkeit von ITZ ([3]; in den Lösungsmitteln Ameisensäure und Eisessig): > 150 mg/mL
